From US10399974B2, “N2-phenyl-pyrido[3,4-D]pyrimidine-2, 8-diamine derivatives and their use as Mps1 inhibitors” (Cancer Research Technology Limited, priority 2014, dated 2019)

Target: full length MPS1 (Homo sapiens (Human), UniProt P33981)
Test: Measurement of Inhibition of MPS1 Kinase
Assay type: biochemical
Settings: full length MPS1 12.5 nM or 3 nM, H236 peptide 5 μM, ATP 10 μM, 60 min at room temperature, Caliper EZ reader II; read-out: MPS1 IC50
Experimental: Measurement of Inhibition of MPS1 Kinase
(5 μM), ATP (10 μM), either DMSO (1% v/v) or the test compound (in the range 0.25 nM-100 μM in 1% DMSO) and assay buffer (50 mM HEPES (pH 7.0), 0.02% NaN3, 0.01% BSA, 0.1 mM Orthovandate, […], 1 μM DTT, Roche protease inhibitor). The reaction was carried out for 60 min at room temperature and stopped by the addition of buffer (10 μl) containing 20 mM EDTA, 0.05% (v/v) Brij-35, in 0.1M HEPES-buffered saline (Free acid, Sigma, UK). The plate was read on a Caliper EZ reader II (Caliper Life Sciences).
The reader provides a Software package (‘Reviewer’) which converts the peak heights into % conversion by measuring both product and substrate peak and also allows selection of control well which represent 0% and 100% inhibition, respectively. The % inhibition of the compounds is calculated relative to the means of selected control wells. IC50s are determined by testing the compounds at a range of concentrations from 0.25 nM-100 μM. The % inhibitions at each concentration are then fitted to a 4 parameter logistic fit: y=(a+((b−a)/(1+((c/x^d)))) where a=asym min, b=asym max, c=IC50 and d=hill coefficient

Sequence of full length MPS1 (P33981 whole entry): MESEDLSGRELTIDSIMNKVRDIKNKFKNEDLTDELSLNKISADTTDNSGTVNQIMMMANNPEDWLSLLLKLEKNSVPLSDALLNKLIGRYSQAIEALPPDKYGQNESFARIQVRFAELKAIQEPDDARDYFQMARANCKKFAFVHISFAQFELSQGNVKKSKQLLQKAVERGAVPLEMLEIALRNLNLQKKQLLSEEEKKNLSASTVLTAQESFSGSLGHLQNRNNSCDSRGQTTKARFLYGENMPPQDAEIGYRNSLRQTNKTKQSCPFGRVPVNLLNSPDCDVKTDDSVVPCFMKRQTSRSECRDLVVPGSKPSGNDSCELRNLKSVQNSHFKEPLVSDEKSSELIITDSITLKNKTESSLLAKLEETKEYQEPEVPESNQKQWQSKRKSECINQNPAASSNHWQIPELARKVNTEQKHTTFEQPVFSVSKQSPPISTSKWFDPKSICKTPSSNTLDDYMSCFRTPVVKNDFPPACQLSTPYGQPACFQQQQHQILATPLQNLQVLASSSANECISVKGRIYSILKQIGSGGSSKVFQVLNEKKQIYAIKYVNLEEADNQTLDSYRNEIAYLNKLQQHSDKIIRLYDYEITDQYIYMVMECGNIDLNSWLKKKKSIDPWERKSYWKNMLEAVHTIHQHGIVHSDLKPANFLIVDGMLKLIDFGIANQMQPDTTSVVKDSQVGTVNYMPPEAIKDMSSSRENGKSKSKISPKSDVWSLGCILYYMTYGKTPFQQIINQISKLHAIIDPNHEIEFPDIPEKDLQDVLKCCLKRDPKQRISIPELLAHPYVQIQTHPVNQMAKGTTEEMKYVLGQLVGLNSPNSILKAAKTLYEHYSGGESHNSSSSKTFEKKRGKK

Row | SMILES | IC50
1 | CCOc1cc(-c2nncn2C)ccc1Nc1ncc2cc(C)nc(N3CCCC(OC)C3)c2n1 (racemic) [Example 47, Racemic-N-(2-ethoxy-4-(4-methyl-4H-1,2,4-triazol-3-yl)phenyl)-8-(3-methoxypiperidin-1-yl)-6-methylpyrido[3,4-d]pyrimidin-2-amine] | 6 nM
2 | CCOc1cc(-c2nncn2C)ccc1Nc1ncc2cc(C)nc(N3CCOC(C)C3)c2n1 (racemic) [Example 48, Racemic-N-(2-ethoxy-4-(4-methyl-4H-1,2,4-triazol-3-yl)phenyl)-6-methyl-8-(2-methylmorpholino)pyrido[3,4-d]pyrimidin-2-amine] | 3 nM
3 | COc1cc(-c2cnnn2C)ccc1Nc1ncc2cc(C)nc(NCC(C)(C)C)c2n1 [Example 1, N2-(2-methoxy-4-(1-methyl-1H-1,2,3-triazol-5-yl)phenyl)-6-methyl-N8-neopentylpyrido[3,4-d]pyrimidine-2,8-diamine] | 0.5 nM
4 | CCOc1cc(-c2nncn2C)ccc1Nc1ncc2cc(C)nc(NCC3(C)CCOC3)c2n1 (centres unmarked) [Example 2, N2-(2-ethoxy-4-(4-methyl-4H-1,2,4-triazol-3-yl)phenyl)-6-methyl-N8-((3-methyltetrahydrofuran-3-yl)methyl)pyrido[3,4-d]pyrimidine-2,8-diamine] | 2 nM
5 | CCOc1cc(-c2nncn2C)ccc1Nc1ncc2cc(C)nc(N3CC(C)(C#N)C3)c2n1 [Example 3, 1-(2-((2-ethoxy-4-(4-methyl-4H-1,2,4-triazol-3-yl)phenyl)amino)-6-methylpyrido[3,4-d]pyrimidin-8-yl)-3-methylazetidine-3-carbonitrile] | 3 nM
6 | CCOc1cc(-c2nncn2C)ccc1Nc1ncc2cc(C)nc(N3CC4(CCOCC4)C3)c2n1 [Example 4, N-(2-ethoxy-4-(4-methyl-4H-1,2,4-triazol-3-yl)phenyl)-6-methyl-8-(7-oxa-2-azaspiro[3.5]nonan-2-yl)pyrido[3,4-d]pyrimidin-2-amine] | 2 nM
7 | CCOc1cc(-c2nncn2C)ccc1Nc1ncc2cc(C)nc(N3CCC(C#N)CC3)c2n1 [Example 5, 1-(2-((2-ethoxy-4-(4-methyl-4H-1,2,4-triazol-3-yl)phenyl)amino)-6-methylpyrido[3,4-d]pyrimidin-8-yl)piperidine-4-carbonitrile] | 3 nM
8 | CCOc1cc(-c2nncn2C)ccc1Nc1ncc2cc(C)nc(NC3CCOCC3)c2n1 [Example 6, N2-(2-ethoxy-4-(4-methyl-4H-1,2,4-triazol-3-yl)phenyl)-6-methyl-N8-(tetrahydro-2H-pyran-4-yl)pyrido[3,4-d]pyrimidine-2,8-diamine] | 5 nM
9 | CCOc1cc(-c2nnc(C)n2C)ccc1Nc1ncc2cc(C)nc(NCC(C)(C)C)c2n1 [Example 7, N2-(4-(4,5-dimethyl-4H-1,2,4-triazol-3-yl)-2-ethoxyphenyl)-6-methyl-N8-neopentylpyrido[3,4-d]pyrimidine-2,8-diamine] | 4 nM
10 | CCOc1cc(-c2nncn2C)ccc1Nc1ncc2cc(C)nc(NCC3(O)CCC3)c2n1 [Example 8, 1-(((2-((2-ethoxy-4-(4-methyl-4H-1,2,4-triazol-3-yl)phenyl)amino)-6-methylpyrido[3,4-d]pyrimidin-8-yl)amino)methyl)cyclobutanol] | 3 nM
11 | CCOc1cc(-c2nncn2C)ccc1Nc1ncc2cc(C)nc(N3CC(C)(O)C3)c2n1 [Example 9, 1-(2-((2-ethoxy-4-(4-methyl-4H-1,2,4-triazol-3-yl)phenyl)amino)-6-methylpyrido[3,4-d]pyrimidin-8-yl)-3-methylazetidin-3-ol] | 4 nM
12 | COc1cc(-c2ccn(C)n2)ccc1Nc1ncc2cc(C)nc(NCC(C)(C)C)c2n1 [Example 11, N2-(2-methoxy-4-(1-methyl-1H-pyrazol-3-yl)phenyl)-6-methyl-N8-neopentylpyrido[3,4-d]pyrimidine-2,8-diamine] | 36 nM
13 | COc1cc(-c2nccn2C)ccc1Nc1ncc2cc(C)nc(NCC(C)(C)C)c2n1 [Example 12, N2-(2-methoxy-4-(1-methyl-1H-imidazol-2-yl)phenyl)-6-methyl-N8-neopentylpyrido[3,4-d]pyrimidine-2,8-diamine] | 4 nM
14 | COc1cc(-c2ccnn2C)ccc1Nc1ncc2cc(C)nc(NCC(C)(C)C)c2n1 [Example 13, N2-(2-methoxy-4-(1-methyl-1H-pyrazol-5-yl)phenyl)-6-methyl-N8-neopentylpyrido[3,4-d]pyrimidine-2,8-diamine] | 18 nM
15 | COc1cc(-c2ncco2)ccc1Nc1ncc2cc(C)nc(NCC(C)(C)C)c2n1 [Example 14, N2-(2-methoxy-4-(oxazol-2-yl)phenyl)-6-methyl-N8-neopentylpyrido[3,4-d]pyrimidine-2,8-diamine] | 59 nM
16 | Cc1cc2cnc(Nc3ccc(-c4nncn4C)cc3OC(F)F)nc2c(NCC(C)(C)C)n1 [Example 15, N2-(2-(difluoromethoxy)-4-(4-methyl-4H-1,2,4-triazol-3-yl)phenyl)-6-methyl-N8-neopentylpyrido[3,4-d]pyrimidine-2,8-diamine] | 1 nM
17 | COc1cc(-c2nnnn2C)ccc1Nc1ncc2cc(C)nc(NCC(C)(C)C)c2n1 [Example 16, N2-(2-methoxy-4-(1-methyl-1H-tetrazol-5-yl)phenyl)-6-methyl-N8-neopentylpyrido[3,4-d]pyrimidine-2,8-diamine] | 5 nM
18 | COc1cc(-c2oc(C)nc2C)ccc1Nc1ncc2cc(C)nc(NCC(C)(C)C)c2n1 [Example 17, N2-(4-(2,4-dimethyloxazol-5-yl)-2-methoxyphenyl)-6-methyl-N8-neopentylpyrido[3,4-d]pyrimidine-2,8-diamine] | 43 nM
19 | COc1cc(-c2ncc(C)n2C)ccc1Nc1ncc2cc(C)nc(NCC(C)(C)C)c2n1 [Example 18, N2-(4-(1,5-dimethyl-1H-imidazol-2-yl)-2-methoxyphenyl)-6-methyl-N8-neopentylpyrido[3,4-d]pyrimidine-2,8-diamine] | 4 nM
20 | COc1cc(-c2cnc(C)n2C)ccc1Nc1ncc2cc(C)nc(N3CC(C)(C)C3)c2n1 [Example 19, N-(4-(1,2-dimethyl-1H-imidazol-5-yl)-2-methoxyphenyl)-8-(3,3-dimethylazetidin-1-yl)-6-methylpyrido[3,4-d]pyrimidin-2-amine] | 5 nM
21 | COc1cc(-c2cnc(C)n2C)ccc1Nc1ncc2cc(C)nc(N3CC4(CCOCC4)C3)c2n1 [Example 20, N-(4-(1,2-dimethyl-1H-imidazol-5-yl)-2-methoxyphenyl)-6-methyl-8-(7-oxa-2-azaspiro[3.5]nonan-2-yl)pyrido[3,4-d]pyrimidin-2-amine] | 12 nM
22 | COc1cc(-c2nnc(C)n2C)ccc1Nc1ncc2cc(C)nc(NCC(C)(C)C)c2n1 [Example 21, N2-(4-(4,5-dimethyl-4H-1,2,4-triazol-3-yl)-2-methoxyphenyl)-6-methyl-N8-neopentylpyrido[3,4-d]pyrimidine-2,8-diamine] | 1 nM
23 | CCOc1cc(-c2nnc(C)n2C)ccc1Nc1ncc2cc(C)nc(N3CC(C)(C)C3)c2n1 [Example 22, N-(4-(4,5-dimethyl-4H-1,2,4-triazol-3-yl)-2-ethoxyphenyl)-8-(3,3-dimethylazetidin-1-yl)-6-methylpyrido[3,4-d]pyrimidin-2-amine] | 20 nM
24 | CCOc1cc(-c2nnc(C)n2C)ccc1Nc1ncc2cc(C)nc(N3CC4(CCOCC4)C3)c2n1 [Example 23, N-(4-(4,5-dimethyl-4H-1,2,4-triazol-3-yl)-2-ethoxyphenyl)-6-methyl-8-(7-oxa-2-azaspiro[3.5]nonan-2-yl)pyrido[3,4-d]pyrimidin-2-amine] | 4 nM
25 | CCOc1cc(-c2nncn2CC)ccc1Nc1ncc2cc(C)nc(N3CC4(CCOCC4)C3)c2n1 [Example 24, N-(2-ethoxy-4-(4-ethyl-4H-1,2,4-triazol-3-yl)phenyl)-6-methyl-8-(7-oxa-2-azaspiro[3.5]nonan-2-yl)pyrido[3,4-d]pyrimidin-2-amine] | 2 nM
26 | CCOc1cc(-c2nncn2CC)ccc1Nc1ncc2cc(C)nc(N3CC(C)(C)C3)c2n1 [Example 25, 8-(3,3-dimethylazetidin-1-yl)-N-(2-ethoxy-4-(4-ethyl-4H-1,2,4-triazol-3-yl)phenyl)-6-methylpyrido[3,4-d]pyrimidin-2-amine] | 6 nM
27 | CCOc1cc(-c2nncn2CC)ccc1Nc1ncc2cc(C)nc(NCC(C)(C)C)c2n1 [Example 26, N2-(2-ethoxy-4-(4-ethyl-4H-1,2,4-triazol-3-yl)phenyl)-6-methyl-N8-neopentylpyrido[3,4-d]pyrimidine-2,8-diamine] | 6 nM
28 | CCOc1cc(-c2nncn2C)ccc1Nc1ncc2cc(C)nc(N3CCC4(CCOC4)C3)c2n1 (centres unmarked) [Example 27, N-(2-ethoxy-4-(4-methyl-4H-1,2,4-triazol-3-yl)phenyl)-6-methyl-8-(2-oxa-7-azaspiro[4.4]nonan-7-yl)pyrido[3,4-d]pyrimidin-2-amine] | 4 nM
29 | CCOc1cc(-c2nncn2C)ccc1Nc1ncc2cc(C)nc(N3CCC(C)(C#N)CC3)c2n1 [Example 28, 1-(2-((2-ethoxy-4-(4-methyl-4H-1,2,4-triazol-3-yl)phenyl)amino)-6-methylpyrido[3,4-d]pyrimidin-8-yl)-4-methylpiperidine-4-carbonitrile] | 2 nM
